One test deals with Wee1-like protein kinase (Homo sapiens, UniProt P30291). Nature of the test: G2/M cell cycle arrest in HeLa, late-stage follow-up, mechanism study for Wee1 degradation inhibitor project, FACS, panel member Wee1 Degradation (AID 2088).
Test [1] deals with G2/mitotic-specific cyclin-B1 (Homo sapiens, UniProt P14635). Nature of the test: G2/M cell cycle arrest in HeLa, late-stage follow-up, mechanism study for Wee1 degradation inhibitor project, FACS, panel member Cyclin B Degradation (AID 2088).
Test [2] can be described thus: Luminescence Cell-Based Dose Response to Identify Activators of 5'UTR Stem-Loop Driven Prion Protein mRNA Translation in H4-C Neuroglioblastoma Cells. [Related pubchem assays: 1829 (Project Summary), 1814 (Primary HTS)]. It counts as functional.
Test [3] in a line: Luminescence Cell-Based Dose Response HTS to Identify Activators of Luciferase Translation or Activity in H4 […] Cells. [Related pubchem assays: 1829 (Project Summary), 1814 (Primary HTS)]. It counts as functional.
The subject of another test is H4. The test can be described thus: Luminescence Cell-Based Dose Response HTS to Identify Activators of 5'UTR Stem-Loop Driven Prion Protein mRNA Translation in H4 Neuroglioblastoma Cells. [Related pubchem assays: 1829 (Project Summary), 1814 (Primary HTS)]. It counts as functional. Conditions: Homo sapiens.
The nature of test [4]: Luminescence Cell-Based Dose Response to Identify Activators of Luciferase Translation or Activity in H4-C Neuroglioblastoma Cells. [Related pubchem assays: 1829 (Project Summary), 1814 (Primary HTS)]. It counts as functional.
Test [5] is described as follows: Luminescence Cell-Based Dose Confirmation to Identify Activators of 5'UTR Stem-Loop Driven Alpha-Synuclein mRNA Translation in H4 Neuroglioblastoma Cells. [Related pubchem assays: 1829 (Project Summary), 1814 (Primary HTS)]. It is filed as functional.
Test [6] deals with Cyclin-dependent kinase 5/CDK5 activator 1 (Homo sapiens, UniProt Q00535). The test can be described thus: CDK5/p35 kinase inhibitors, dose response, biochemical, cherry-picked samples, set 2 (AID 504545).
Test [7] concerns the target FAD-linked sulfhydryl oxidase ALR (Homo sapiens, UniProt P55789). The test can be described thus: inhibitors of human ALR sulfhydryl oxidase, dose response, biochemical, H2O2 detection, luminescence, cherry-pick (AID 493248).
Test [8] has as its target T1, Rac GTPase-activating protein 1 (Homo sapiens, UniProt Q9H0H5).
T1 sequence (Q9H0H5 whole entry): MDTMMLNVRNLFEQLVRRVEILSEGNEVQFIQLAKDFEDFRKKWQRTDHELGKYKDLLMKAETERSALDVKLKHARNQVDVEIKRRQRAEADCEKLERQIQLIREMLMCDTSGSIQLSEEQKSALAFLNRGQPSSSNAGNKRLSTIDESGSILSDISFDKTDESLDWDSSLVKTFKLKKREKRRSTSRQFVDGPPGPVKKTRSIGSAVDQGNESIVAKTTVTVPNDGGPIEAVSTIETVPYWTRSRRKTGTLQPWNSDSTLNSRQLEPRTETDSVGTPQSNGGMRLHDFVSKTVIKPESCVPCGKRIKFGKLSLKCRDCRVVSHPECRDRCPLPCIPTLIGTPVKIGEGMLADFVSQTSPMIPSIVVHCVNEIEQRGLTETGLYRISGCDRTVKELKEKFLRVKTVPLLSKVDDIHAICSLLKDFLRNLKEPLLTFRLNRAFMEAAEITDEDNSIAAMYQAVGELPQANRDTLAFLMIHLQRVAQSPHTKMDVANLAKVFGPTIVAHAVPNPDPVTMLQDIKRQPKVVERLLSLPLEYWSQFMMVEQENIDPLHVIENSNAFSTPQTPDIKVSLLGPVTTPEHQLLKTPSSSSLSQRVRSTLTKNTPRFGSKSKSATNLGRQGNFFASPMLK
Nature of the test: MgcRacGAP GTPase-activating activity inhibitors, confirmation, biochemical, ADP Hunter fluorescence, primary and confirmatory (AID 624330). It is filed as functional.

Test [9] deals with Vero. Nature of the test: host cell cytotoxicity of antiviral hits, dose response, cytotoxicity control for West Nile virus antiviral project, secondary assay (AID 1650). Particulars: Chlorocebus sabaeus. It counts as functional.
The test system of test [10] is Vero. The test can be described thus: West Nile virus antiviral activity, cell-based, CPE readout (AID 1621). It counts as functional. Particulars: Chlorocebus sabaeus.
For test [11], the target named is Neurotensin receptor type 1 (Homo sapiens, UniProt P30989). It counts as functional.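 Further: Image-based confirmatory dose-response assay measuring agonist activity at NTR1; NTR1-expressing U2OS osteosarcoma cells imaged for beta-arrestin GFP spot formation; agonist potency where compounds increase beta-arrestin recruitment.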
The target of test [12] is T2, Short transient receptor potential channel 4 (Mus musculus, UniProt Q9QUQ5).
T2 sequence (Q9QUQ5 whole entry): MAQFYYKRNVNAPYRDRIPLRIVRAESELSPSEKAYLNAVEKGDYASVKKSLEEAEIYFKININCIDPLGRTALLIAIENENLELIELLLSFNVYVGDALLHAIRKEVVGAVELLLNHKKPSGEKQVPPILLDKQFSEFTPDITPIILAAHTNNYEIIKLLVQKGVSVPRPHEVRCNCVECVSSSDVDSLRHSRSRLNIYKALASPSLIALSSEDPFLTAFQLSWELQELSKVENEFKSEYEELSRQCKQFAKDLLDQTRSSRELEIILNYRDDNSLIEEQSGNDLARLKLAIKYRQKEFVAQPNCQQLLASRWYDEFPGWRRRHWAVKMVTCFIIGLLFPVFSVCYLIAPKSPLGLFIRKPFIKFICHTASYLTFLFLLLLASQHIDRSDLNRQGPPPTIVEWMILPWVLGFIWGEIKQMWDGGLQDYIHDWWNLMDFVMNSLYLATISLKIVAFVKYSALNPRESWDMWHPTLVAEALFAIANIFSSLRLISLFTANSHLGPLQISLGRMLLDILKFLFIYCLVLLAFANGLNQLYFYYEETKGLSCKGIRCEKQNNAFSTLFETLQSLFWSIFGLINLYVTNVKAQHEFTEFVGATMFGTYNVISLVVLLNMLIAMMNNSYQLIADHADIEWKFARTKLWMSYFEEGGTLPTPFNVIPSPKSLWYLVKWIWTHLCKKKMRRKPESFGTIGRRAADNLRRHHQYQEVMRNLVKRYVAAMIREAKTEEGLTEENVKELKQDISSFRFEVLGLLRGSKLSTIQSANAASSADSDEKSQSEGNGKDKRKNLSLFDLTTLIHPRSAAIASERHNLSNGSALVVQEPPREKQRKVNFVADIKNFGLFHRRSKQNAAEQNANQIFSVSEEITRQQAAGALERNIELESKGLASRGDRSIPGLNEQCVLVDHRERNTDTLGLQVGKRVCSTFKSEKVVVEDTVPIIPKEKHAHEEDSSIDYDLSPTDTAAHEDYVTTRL
The test can be described thus: mouse TRPC4 channel activators, dose response, cell-based, HEK293 TRPC4/mu-opioid, Fluo-4 calcium (AID 434937). It is filed as functional.

A further test relates to INS1. Nature of the test: beta cell apoptosis inhibitors, cytokine rescue, dose response, luminescence, retest (AID 449756).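 Further: cell death triggered by IL-1 beta plus TNF-alpha plus IFN-gamma mixture; protective hits raise ATP signal compared with cytokine alone wells.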 It counts as functional, cell-based. Particulars: Rattus norvegicus.
The nature of test [13]: Shn3 3'UTR reporter inhibitors, dose response, cell-based, Clone20 osteoblasts, firefly luciferase, cherry-picked (AID 624132).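 Further: firefly luciferase luminescence from reporter carrying the Shn3 3'UTR in osteoblasts.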 It is filed as functional.
The nature of test [14]: control 3'UTR Renilla luciferase suppression, dose response, counter-screen for Shn3 inhibitor project, cell-based, Clone20-Shn3RL, cherry-picked (AID 624133). It is filed as functional.
Another test addresses Paired box protein Pax-8 (Homo sapiens, UniProt Q06710). Nature of the test: inhibitors of PAX8-driven TPO luciferase reporter, dose response, RMG-I cells, cherry-pick (AID 687027).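 Further: luciferase reporter driven by Pax8 target thyroperoxidase promoter measured by SteadyGlo luminescence.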 It is filed as functional, cell-based.
Test [15] can be described thus: non-specific cell cytotoxicity, dose response, cytotoxicity control for PAX8 inhibitor project, plate reader, dry powder samples (AID 743021). It is filed as functional, cell-based.

Active and inactive are the calls of the source. Bounds are passed on as bounds.

From ChEMBL document CHEMBL1201862, “PubChem BioAssay data set” (2004) come the findings set out here.

Sequence of G2/mitotic-specific cyclin-B1 (P14635 whole entry): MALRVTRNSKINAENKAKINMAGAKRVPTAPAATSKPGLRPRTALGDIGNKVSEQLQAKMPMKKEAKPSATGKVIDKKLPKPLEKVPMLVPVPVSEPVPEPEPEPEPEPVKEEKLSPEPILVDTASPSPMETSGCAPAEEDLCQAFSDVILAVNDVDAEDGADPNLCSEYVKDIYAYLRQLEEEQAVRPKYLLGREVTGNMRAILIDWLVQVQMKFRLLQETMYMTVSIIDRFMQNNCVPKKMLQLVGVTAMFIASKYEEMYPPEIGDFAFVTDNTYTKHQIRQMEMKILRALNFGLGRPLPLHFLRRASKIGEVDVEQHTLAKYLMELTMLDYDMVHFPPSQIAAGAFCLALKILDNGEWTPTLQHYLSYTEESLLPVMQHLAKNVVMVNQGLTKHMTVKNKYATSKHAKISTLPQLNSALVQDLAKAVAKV
Sequence of FAD-linked sulfhydryl oxidase ALR (P55789 whole entry): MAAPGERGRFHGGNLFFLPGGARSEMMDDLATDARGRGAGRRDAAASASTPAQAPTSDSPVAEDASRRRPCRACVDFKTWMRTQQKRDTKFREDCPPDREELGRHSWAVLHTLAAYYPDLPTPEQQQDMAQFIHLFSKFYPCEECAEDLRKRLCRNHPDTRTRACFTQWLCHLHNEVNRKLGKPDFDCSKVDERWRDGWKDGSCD
Sequence of Cyclin-dependent kinase 5/CDK5 activator 1 (Q00535 whole entry): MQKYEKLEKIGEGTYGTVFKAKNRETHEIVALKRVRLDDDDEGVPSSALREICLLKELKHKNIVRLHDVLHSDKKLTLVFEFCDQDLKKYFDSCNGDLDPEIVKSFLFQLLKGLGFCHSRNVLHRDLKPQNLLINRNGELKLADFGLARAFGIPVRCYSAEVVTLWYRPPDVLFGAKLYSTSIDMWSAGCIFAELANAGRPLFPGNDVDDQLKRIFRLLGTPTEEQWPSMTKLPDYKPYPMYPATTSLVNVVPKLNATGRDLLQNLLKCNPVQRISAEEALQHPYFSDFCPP
Sequence of Cyclin-dependent kinase 5/CDK5 activator 1 (Q15078 whole entry, further chain): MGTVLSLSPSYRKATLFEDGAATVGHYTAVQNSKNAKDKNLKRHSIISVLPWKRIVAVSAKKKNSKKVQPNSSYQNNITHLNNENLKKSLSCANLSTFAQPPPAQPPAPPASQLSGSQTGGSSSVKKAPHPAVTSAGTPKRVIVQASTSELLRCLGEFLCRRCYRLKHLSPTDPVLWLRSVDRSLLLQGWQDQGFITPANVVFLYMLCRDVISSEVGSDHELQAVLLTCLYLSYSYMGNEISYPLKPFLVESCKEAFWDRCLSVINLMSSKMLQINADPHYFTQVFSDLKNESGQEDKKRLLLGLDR
Sequence of Neurotensin receptor type 1 (P30989 whole entry): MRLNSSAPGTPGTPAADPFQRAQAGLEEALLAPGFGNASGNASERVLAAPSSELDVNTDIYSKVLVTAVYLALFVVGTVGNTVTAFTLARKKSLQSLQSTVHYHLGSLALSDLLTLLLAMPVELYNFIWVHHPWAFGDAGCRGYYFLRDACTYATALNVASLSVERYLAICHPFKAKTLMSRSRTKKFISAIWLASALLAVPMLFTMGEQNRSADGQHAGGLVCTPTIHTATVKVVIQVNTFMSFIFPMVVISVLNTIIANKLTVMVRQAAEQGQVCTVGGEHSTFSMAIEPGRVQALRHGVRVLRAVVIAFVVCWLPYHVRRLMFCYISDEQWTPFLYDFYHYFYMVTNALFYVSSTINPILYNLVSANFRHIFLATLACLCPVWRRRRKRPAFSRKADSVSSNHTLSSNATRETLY
Sequence of Paired box protein Pax-8 (Q06710 whole entry): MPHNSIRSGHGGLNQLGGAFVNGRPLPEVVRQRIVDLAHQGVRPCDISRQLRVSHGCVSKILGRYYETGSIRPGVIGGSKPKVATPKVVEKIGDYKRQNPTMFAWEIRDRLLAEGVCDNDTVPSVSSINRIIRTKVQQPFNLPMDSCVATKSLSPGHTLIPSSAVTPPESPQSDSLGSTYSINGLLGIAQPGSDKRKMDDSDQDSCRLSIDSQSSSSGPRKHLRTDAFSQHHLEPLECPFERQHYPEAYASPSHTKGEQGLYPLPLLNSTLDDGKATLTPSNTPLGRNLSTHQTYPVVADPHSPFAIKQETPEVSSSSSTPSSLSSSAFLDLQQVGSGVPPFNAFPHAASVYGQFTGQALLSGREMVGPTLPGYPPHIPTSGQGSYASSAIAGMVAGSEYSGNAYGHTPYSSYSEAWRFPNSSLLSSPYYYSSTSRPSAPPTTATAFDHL
Sequence of Wee1-like protein kinase (P30291 whole entry): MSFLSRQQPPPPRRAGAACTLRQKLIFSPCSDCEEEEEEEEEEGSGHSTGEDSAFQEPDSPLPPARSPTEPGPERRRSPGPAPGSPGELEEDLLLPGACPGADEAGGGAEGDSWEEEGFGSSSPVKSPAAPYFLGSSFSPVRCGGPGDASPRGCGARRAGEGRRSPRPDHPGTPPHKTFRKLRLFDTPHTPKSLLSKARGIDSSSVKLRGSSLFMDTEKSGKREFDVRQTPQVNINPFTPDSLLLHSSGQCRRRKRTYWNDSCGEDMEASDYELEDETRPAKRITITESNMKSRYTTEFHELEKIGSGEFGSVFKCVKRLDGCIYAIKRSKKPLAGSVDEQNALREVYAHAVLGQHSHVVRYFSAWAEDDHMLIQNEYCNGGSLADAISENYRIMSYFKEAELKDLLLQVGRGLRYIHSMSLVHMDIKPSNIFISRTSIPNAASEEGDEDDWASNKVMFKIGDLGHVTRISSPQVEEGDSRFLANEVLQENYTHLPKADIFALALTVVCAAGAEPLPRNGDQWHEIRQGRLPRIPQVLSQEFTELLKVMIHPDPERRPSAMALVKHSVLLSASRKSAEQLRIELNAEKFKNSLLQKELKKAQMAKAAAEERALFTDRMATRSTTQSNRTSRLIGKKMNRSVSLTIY

As to `Cc1cc(O)nc(-n2nc(C)cc2NC(=O)c2ccc(Br)cc2)n1`, the EC50 (on Wee1-like protein kinase; in [1]) was > 49.7 µM (inactive) each time.

On to `Oc1ccc(/C=N/Nc2ccc(C(F)(F)F)cn2)cc1`, for which the concentration giving a half-maximal response (EC50) in test [2] is 0.998 µM (active); in [3], < 0.1 µM (inconclusive); with H4, > 120 µM (not active); in [4], 0.329 µM (active); in test [5], 0.35 µM (active). Besides, the values for the half-maximal activity concentration (AC50) in test [6] and in [7] were 19.9 µM (active) and 37.5 µM (active), respectively. Besides, the IC50 in [8] was 28.9 µM (active).

Regarding `CC[C@@H](C(=O)[C@@H](C)[C@@H](O)[C@H](C)CCc1ccc(C)c(O)c1C(=O)O)[C@H]1O[C@](CC)([C@H]2CC[C@](O)(CC)[C@H](C)O2)C[C@@H]1C` [LASALOCID A SODIUM], the CC50 in the test with Vero [9] was 19.4 µM (active). Moreover, the IC50 in the test on Vero [10] was 8.3 µM (active). Besides, the figures for the EC50 in test [11] and in test [12] were 30.5 µM (inactive) and 5.96 µM (active), respectively. In addition, the AC50 in the test on INS1 was 2.64 µM (active); in test [13] it was 7.93 µM (active); in test [14], 8.23 µM (active); on Paired box protein Pax-8, 3.52 µM (active); in test [15] it was 40.7 µM (active).
